Earlier results in patent US11357858B2, “Pharmaceutical compositions for the treatment of postoperative pain” (FIDIA FARMACEUTICI S.P.A., priority 2018, dated 2022).
Counter-ions that a name gives are not always drawn.

Conditions: in vivo

For `CCCN1CCCC[C@H]1C(=O)Nc1c(C)cccc1C` [ropivacaine HCl], the “maximum dose which can be administered without the onset of side effects” value is listed as “about 2.5 mg/kg”.
